Earlier results, collected in patent US20080242727A1, “DIETARY COMPOSITIONS CONTAINING ALPHA AMINO N-BUTYRATE AND METHODS OF ENHANCING LEAN BODY MASS” (priority 2007, published 2008).

Tests used:
[1] = system: hemidiaphragms from fed or fasted rats; settings: in vitro; for specific activity of muscle proteins (protein synthesis): [14C]lysine, with or without insulin
[2] = system: hearts perfused with buffer; settings: for negative nitrogen balance: buffer with glucose and normal plasma levels of other amino acids, except BCAA
[3] = system: protein synthesis in skeletal muscle; settings: for protein synthesis in skeletal muscle of food-deprived rats: oral administration, vs saline-treated controls
erythroid progenitors = settings: in vivo or in culture
[4] = dose of as little as 3 g/day
rat liver proteolysis = settings: out of 12 amino acids tested; only at concentrations much higher than physiological

Row | SMILES | specific activity of muscle proteins (protein synthesis) [1] | negative nitrogen balance [2] | protein synthesis in skeletal muscle of food-deprived rats [3] | further results
1 | CC(C)[C@H](N)C(=O)O [valine] | no effect | not | ineffective | 
2 | CC[C@H](C)[C@H](N)C(=O)O [isoleucine] | inhibitory effects | not | ineffective | 
3 | CCC(N)C(=O)O (stereo not drawn) [ABA, alpha amino n-butyrate] |  |  |  | growth of erythroid progenitors (erythroid progenitors): stimulated the growth of all classes of erythroid progenitors
4 | CC(C)(O)CC(=O)O [HMB, b-hydroxy b-methylbutyrate] |  |  |  | effect on catabolism, lean muscle mass and recuperation [4]: anti-catabolic, promotes lean muscle mass, and may speed recuperation
5 | CC(C)C[C@H](N)C(=O)O [Leucine, L-Leucine] | increased | decreased the negative nitrogen balance | stimulated protein synthesis | inhibition of deprivation-induced rat liver proteolysis (rat liver proteolysis): strongest inhibitor; protein degradation [1]: prohibited protein degradation; rate of protein synthesis as % of the rate of proteolysis ([2]; leucine concentrations giving maximal inhibition of protein degradation): 50%; protein synthesis / eIF4F formation ([3]; independently of increases in serum insulin): stimulated protein synthesis by enhancing eukaryotic initiation factor (eIF)4F formation; muscle synthesis after exercise ([3]; oral gavage to rats after exercise): stimulated muscle synthesis independent of increased plasma insulin; glucocorticoid-induced decreases in protein synthesis and mRNA translation ([3]; oral, rats): restored
